The text below walks through data of ChEMBL document CHEMBL1159004, “Four new antibacterial sesterterpenes from a marine sponge of the genus Luffariella” (1992).

Type in all cases: functional
The subject of assay [1] is Micrococcus luteus. Description: Antibacterial activity against Micrococcus luteus ATCC 9341 by TLC bioautographic test.
Assay [2] relates to Bacillus subtilis. Description: Antibacterial activity against Bacillus subtilis ATCC […] by TLC bioautographic test.
Assay [3] deals with Escherichia coli. Description: Antibacterial activity against Escherichia coli ATCC 25922 by TLC bioautographic test.

Consider `CC(=O)OC/C(=C\C[C@H]1OC(=O)C=C1CO)CC/C=C(\C)CCC1=C(C)CCCC1(C)C`, for which the Activity was 8 µg in assay [1] and 2 µg in assay [2].
`CC1=C(CC/C(C)=C/CC/C(C=O)=C\C[C@H]2OC(=O)C=C2CO)C(C)(C)CCC1`: the Activity in assay [1] and in assay [2] was 4 µg in each case.
Turning to `CC(=O)OC/C(=C\C[C@H]1OC(=O)CC1CO)CC/C=C(\C)CCC1=C(C)CCCC1(C)C` (stereo partly drawn), the Activity in assay [1] stood at 3 µg; in assay [2] it was 11 µg.
For the molecule `CC1=C(CC/C(C)=C/CC/C(=C/C[C@H]2OC(=O)CC2CO)CO)C(C)(C)CCC1` (stereo partly drawn), the Activity in assay [3] is 1 µg; in assay [1], 5 µg.
